#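 1) Cells in 96-well plates. 2) Compound, 48 h, 5 concentrations. 3) Linear interpolation between surrounding doses. 4) Unreached endpoint = highest concentration. TGI denotes the concentration required for complete inhibition of growth.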
# How the values were obtained:
# Test in all cases: NCI-60 cell line screen, 48 h
# MDA-MB-231 breast = tested on: MDA-MB-231 breast
# IGROV1 ovarian = tested on: IGROV1 ovarian
# 786-0 renal = tested on: 786-0 renal
# TK-10 renal = tested on: TK-10 renal
# SF-295 CNS = tested on: SF-295 CNS
# DU-145 prostate = tested on: DU-145 prostate
# SR leukemia = tested on: SR leukemia
# ACHN renal = tested on: ACHN renal
# NCI-H522 lung = tested on: NCI-H522 lung
# K-562 leukemia = tested on: K-562 leukemia
# T-47D breast = tested on: T-47D breast
# SK-OV-3 ovarian = tested on: SK-OV-3 ovarian
# NCI-H23 lung = tested on: NCI-H23 lung
# LOX IMVI melanoma = tested on: LOX IMVI melanoma
# HCC-2998 colon = tested on: HCC-2998 colon
# HCT-116 colon = tested on: HCT-116 colon
# HOP-62 NSCLC = tested on: HOP-62 NSCLC
# A549 NSCLC = tested on: A549 NSCLC
# OVCAR-8 ovarian = tested on: OVCAR-8 ovarian
# SF-268 CNS = tested on: SF-268 CNS
# MDA-N = tested on: MDA-N
# BT-549 breast = tested on: BT-549 breast
# SK-MEL-2 melanoma = tested on: SK-MEL-2 melanoma
# NCI/ADR-RES ovarian = tested on: NCI/ADR-RES ovarian
# SNB-75 CNS = tested on: SNB-75 CNS
# OVCAR-4 ovarian = tested on: OVCAR-4 ovarian
# NCI-H460 lung = tested on: NCI-H460 lung
# PC-3 prostate = tested on: PC-3 prostate
# NCI-H226 lung = tested on: NCI-H226 lung
# CCRF-CEM leukemia = tested on: CCRF-CEM leukemia
# SW-620 colon = tested on: SW-620 colon
# SK-MEL-5 melanoma = tested on: SK-MEL-5 melanoma
# SN12C renal = tested on: SN12C renal
# MOLT-4 leukemia = tested on: MOLT-4 leukemia
# EKVX NSCLC = tested on: EKVX NSCLC
# UACC-257 melanoma = tested on: UACC-257 melanoma
# M14 melanoma = tested on: M14 melanoma
# U251 CNS = tested on: U251 CNS
# COLO 205 colon = tested on: COLO 205 colon
# SK-MEL-28 melanoma = tested on: SK-MEL-28 melanoma
# MALME-3M melanoma = tested on: MALME-3M melanoma
# HCT-15 colon = tested on: HCT-15 colon
# RXF 393 renal = tested on: RXF 393 renal
# UACC-62 melanoma = tested on: UACC-62 melanoma
# MCF7 breast = tested on: MCF7 breast
# SF-539 CNS = tested on: SF-539 CNS
# SNB-19 CNS = tested on: SNB-19 CNS
# OVCAR-5 ovarian = tested on: OVCAR-5 ovarian
# CAKI-1 renal = tested on: CAKI-1 renal
# HS 578T breast = tested on: HS 578T breast
# UO-31 renal = tested on: UO-31 renal
# HL-60(TB) leukemia = tested on: HL-60(TB) leukemia
# HT29 colon = tested on: HT29 colon
# KM12 colon = tested on: KM12 colon
# OVCAR-3 ovarian = tested on: OVCAR-3 ovarian
# MDA-MB-435 = tested on: MDA-MB-435
# A498 renal = tested on: A498 renal
# HOP-92 NSCLC = tested on: HOP-92 NSCLC
# RPMI-8226 leukemia = tested on: RPMI-8226 leukemia
structure (smiles),measurement,setting,value
COc1ccc(OC)c(C(=O)c2cccc(C(=O)c3cc(OC)ccc3OC)n2)c1,TGI,MDA-MB-231 breast,> 100 µM
same,TGI,IGROV1 ovarian,> 100 µM
same,TGI,786-0 renal,> 100 µM
same,TGI,TK-10 renal,> 100 µM
same,TGI,SF-295 CNS,74.5 µM
same,TGI,DU-145 prostate,> 100 µM
same,TGI,SR leukemia,> 100 µM
same,TGI,ACHN renal,> 100 µM
same,TGI,NCI-H522 lung,> 100 µM
same,TGI,K-562 leukemia,> 100 µM
same,TGI,T-47D breast,> 100 µM
same,TGI,SK-OV-3 ovarian,> 100 µM
same,TGI,NCI-H23 lung,74 µM
same,TGI,LOX IMVI melanoma,> 100 µM
same,TGI,HCC-2998 colon,> 100 µM
same,TGI,HCT-116 colon,> 100 µM
same,TGI,HOP-62 NSCLC,> 100 µM
same,TGI,A549 NSCLC,> 100 µM
same,TGI,OVCAR-8 ovarian,> 100 µM
same,TGI,SF-268 CNS,> 100 µM
same,TGI,MDA-N,62.6 µM
same,TGI,BT-549 breast,79.2 µM
same,TGI,SK-MEL-2 melanoma,70.9 µM
same,TGI,NCI/ADR-RES ovarian,> 100 µM
same,TGI,SNB-75 CNS,59.4 µM
same,TGI,OVCAR-4 ovarian,> 100 µM
same,TGI,NCI-H460 lung,> 100 µM
same,TGI,PC-3 prostate,> 100 µM
same,TGI,NCI-H226 lung,74.9 µM
same,TGI,CCRF-CEM leukemia,> 100 µM
same,TGI,SW-620 colon,> 100 µM
same,TGI,SK-MEL-5 melanoma,50.5 µM
same,TGI,SN12C renal,> 100 µM
same,TGI,MOLT-4 leukemia,> 100 µM
same,TGI,EKVX NSCLC,> 100 µM
same,TGI,UACC-257 melanoma,> 100 µM
same,TGI,M14 melanoma,> 100 µM
same,TGI,U251 CNS,> 100 µM
same,TGI,COLO 205 colon,> 100 µM
same,TGI,SK-MEL-28 melanoma,> 100 µM
same,TGI,MALME-3M melanoma,> 100 µM
same,TGI,HCT-15 colon,> 100 µM
same,TGI,RXF 393 renal,43.4 µM
same,TGI,UACC-62 melanoma,> 100 µM
same,TGI,MCF7 breast,67.5 µM
same,TGI,SF-539 CNS,> 100 µM
same,TGI,SNB-19 CNS,> 100 µM
same,TGI,OVCAR-5 ovarian,> 100 µM
same,TGI,CAKI-1 renal,> 100 µM
same,TGI,HS 578T breast,84.5 µM
same,TGI,UO-31 renal,85.9 µM
same,TGI,HL-60(TB) leukemia,71.9 µM
same,TGI,HT29 colon,> 100 µM
same,TGI,KM12 colon,> 100 µM
COc1cc(-c2nc3nc(N4CCN(C)CC4)ccc3[nH]2)c(OC)c2[nH]c(CO)nc12,TGI,MDA-MB-231 breast,> 100 µM
same,TGI,IGROV1 ovarian,> 100 µM
same,TGI,786-0 renal,> 100 µM
same,TGI,TK-10 renal,> 100 µM
same,TGI,SF-295 CNS,> 100 µM
same,TGI,DU-145 prostate,> 100 µM
same,TGI,SR leukemia,> 100 µM
same,TGI,ACHN renal,> 100 µM
same,TGI,NCI-H522 lung,> 100 µM
same,TGI,K-562 leukemia,> 100 µM
same,TGI,OVCAR-3 ovarian,> 100 µM
same,TGI,T-47D breast,> 100 µM
same,TGI,SK-OV-3 ovarian,> 100 µM
same,TGI,NCI-H23 lung,> 100 µM
same,TGI,LOX IMVI melanoma,> 100 µM
same,TGI,HCC-2998 colon,> 100 µM
same,TGI,MDA-MB-435,> 100 µM
same,TGI,HCT-116 colon,> 100 µM
same,TGI,HOP-62 NSCLC,> 100 µM
same,TGI,A549 NSCLC,> 100 µM
same,TGI,OVCAR-8 ovarian,> 100 µM
same,TGI,SF-268 CNS,> 100 µM
same,TGI,MDA-N,> 100 µM
same,TGI,BT-549 breast,> 100 µM
same,TGI,SK-MEL-2 melanoma,99.1 µM
same,TGI,NCI/ADR-RES ovarian,> 100 µM
same,TGI,SNB-75 CNS,> 100 µM
same,TGI,OVCAR-4 ovarian,> 100 µM
same,TGI,NCI-H460 lung,> 100 µM
same,TGI,NCI-H226 lung,> 100 µM
same,TGI,SW-620 colon,> 100 µM
same,TGI,SK-MEL-5 melanoma,> 100 µM
same,TGI,SN12C renal,> 100 µM
same,TGI,A498 renal,> 100 µM
same,TGI,MOLT-4 leukemia,> 100 µM
same,TGI,EKVX NSCLC,> 100 µM
same,TGI,UACC-257 melanoma,> 100 µM
same,TGI,M14 melanoma,> 100 µM
same,TGI,U251 CNS,> 100 µM
same,TGI,COLO 205 colon,> 100 µM
same,TGI,SK-MEL-28 melanoma,> 100 µM
same,TGI,MALME-3M melanoma,> 100 µM
same,TGI,HCT-15 colon,> 100 µM
same,TGI,RXF 393 renal,> 100 µM
same,TGI,UACC-62 melanoma,> 100 µM
same,TGI,MCF7 breast,> 100 µM
same,TGI,SF-539 CNS,> 100 µM
same,TGI,SNB-19 CNS,> 100 µM
same,TGI,OVCAR-5 ovarian,> 100 µM
same,TGI,CAKI-1 renal,> 100 µM
same,TGI,HS 578T breast,> 100 µM
same,TGI,UO-31 renal,> 100 µM
same,TGI,HT29 colon,> 100 µM
same,TGI,KM12 colon,> 100 µM
same,TGI,HOP-92 NSCLC,> 100 µM
CCC1(CC)C(=O)N(C(=O)c2ccc(C)cc2)N(C(=O)c2ccc(C)cc2)C1=O,TGI,MDA-MB-231 breast,> 75 µM
same,TGI,IGROV1 ovarian,> 75 µM
same,TGI,786-0 renal,> 75 µM
same,TGI,TK-10 renal,> 75 µM
same,TGI,SF-295 CNS,> 75 µM
same,TGI,DU-145 prostate,> 75 µM
same,TGI,SR leukemia,68.8 µM
same,TGI,ACHN renal,> 75 µM
same,TGI,NCI-H522 lung,51.6 µM
same,TGI,K-562 leukemia,> 75 µM
same,TGI,OVCAR-3 ovarian,46.4 µM
same,TGI,T-47D breast,> 75 µM
same,TGI,SK-OV-3 ovarian,> 75 µM
same,TGI,NCI-H23 lung,> 75 µM
same,TGI,LOX IMVI melanoma,> 75 µM
same,TGI,HCC-2998 colon,> 75 µM
same,TGI,MDA-MB-435,> 75 µM
same,TGI,HCT-116 colon,> 75 µM
same,TGI,HOP-62 NSCLC,> 75 µM
same,TGI,A549 NSCLC,> 75 µM
same,TGI,OVCAR-8 ovarian,> 75 µM
same,TGI,RPMI-8226 leukemia,> 75 µM
same,TGI,SF-268 CNS,> 75 µM
same,TGI,MDA-N,> 75 µM
same,TGI,BT-549 breast,> 75 µM
same,TGI,SK-MEL-2 melanoma,> 75 µM
same,TGI,NCI/ADR-RES ovarian,> 75 µM
same,TGI,SNB-75 CNS,> 75 µM
same,TGI,OVCAR-4 ovarian,> 75 µM
same,TGI,NCI-H460 lung,> 75 µM
same,TGI,PC-3 prostate,> 75 µM
same,TGI,NCI-H226 lung,> 75 µM
same,TGI,CCRF-CEM leukemia,> 75 µM
same,TGI,SW-620 colon,> 75 µM
same,TGI,SK-MEL-5 melanoma,> 75 µM
same,TGI,SN12C renal,> 75 µM
same,TGI,MOLT-4 leukemia,58.5 µM
same,TGI,EKVX NSCLC,> 75 µM
same,TGI,UACC-257 melanoma,> 75 µM
same,TGI,M14 melanoma,> 75 µM
same,TGI,U251 CNS,> 75 µM
same,TGI,COLO 205 colon,> 75 µM
same,TGI,SK-MEL-28 melanoma,> 75 µM
same,TGI,MALME-3M melanoma,62.7 µM
same,TGI,HCT-15 colon,> 75 µM
same,TGI,RXF 393 renal,> 75 µM
same,TGI,UACC-62 melanoma,> 75 µM
same,TGI,MCF7 breast,> 75 µM
same,TGI,SNB-19 CNS,> 75 µM
same,TGI,OVCAR-5 ovarian,> 75 µM
same,TGI,CAKI-1 renal,> 75 µM
same,TGI,HS 578T breast,> 75 µM
same,TGI,UO-31 renal,> 75 µM
same,TGI,HL-60(TB) leukemia,> 75 µM
same,TGI,HT29 colon,> 75 µM
same,TGI,KM12 colon,> 75 µM

# Source: PubChem BioAssay (NCI)
